Laboratory results from patent US12527849B2, “Apparatus for determining administration form of a composition of an engineered virus-based nanoparticle for a treatment of an autoimmune condition” (Diamante Srl, priority 2021, dated 2026).

Test system: TNF-α
Assay: Pro-inflammatory cytokines in sera of CIA Collagen mice (ELISA, day 58): TNF-α
Type: in vivo
Details: Dexamethasone oral 1 mg/kg, 20 times between day 28 and 57
Experimental: Critical administration 124 disclosed herein is further described below. Q5D represents administration 5 days a part. TBSV·pLIp1 and wt TBSV shown in Table 1 may include liquid form that are not sterile and stored in −20° C. TBSV·pLIp1 may be given at the dose of 50 μG/100 μL Male DBA/1J mice (8 weeks; Envigo, Italy) may be used for these studies. Mice may be housed in individual cages (two for each group) and maintained under a 12:12 light-dark cycle at 21° C.±1° C. and 50%±5% humidity. The animals may be acclimated to their environment for 1 week and had ad libitum access to tap water and standard rodent diet. All animal experiments may be complied with regulations in Italy (D.M. 116192), Europe (O.J of E.C. L 358/112/18/1986), and the United States (Animal Welfare Assurance Number A5594-01, Department of Health and Human Services, USA). […] Arthritis was assessed by using qualitative severity score system and hind paw volume (mL) measured by a plethysmometer on day 20, 22, 24, 26, 28, 30, 32, 34, 36, 38, 40, 42, 44, 46 48, 50, 52, 54, 56 and 58. Body weight was recorded on day 0, 6, 13, 16, 18, 20, 22, 24, 26, 28, 30, 32, 34, 36, 38, 40, 42, 44, 46, 50, 52, 54, 56 and 58. […]

Structure (SMILES): C[C@@H]1C[C@H]2[C@@H]3CCC4=CC(=O)C=C[C@]4(C)[C@@]3(F)[C@@H](O)C[C@]2(C)[C@@]1(O)C(=O)CO [Dexamethasone, dexamethasone]
- TNF-α, % of reduction vs CIA Collagen: 12.02%
